Key:
[1] = test system: Spontaneously hypertensive rats; assay: mean arterial blood pressure in spontaneously hypertensive rats; assay type: in vivo, rat; settings: 50 mg/kg intraperitoneally, vs vehicle treated controls
Experimental: Spontaneously hypertensive rats were treated with 2-(carboxymethylthio)-1-(3,5-difluorobenzyl)imidazole at a dose of 50 mg/kg intraperitoneally, and mean arterial blood pressure was monitored for four hours using an indwelling cannula in the femoral artery. […] The maximal blood pressure reduction was approximately 43 mmHg.

[2] = biological target: T1, DBH (Homo sapiens, UniProt P09172); settings: cited from earlier work; for DBH inhibition: literature report; for mode of DBH inhibition: literature
T1 sequence (P09172 1-617): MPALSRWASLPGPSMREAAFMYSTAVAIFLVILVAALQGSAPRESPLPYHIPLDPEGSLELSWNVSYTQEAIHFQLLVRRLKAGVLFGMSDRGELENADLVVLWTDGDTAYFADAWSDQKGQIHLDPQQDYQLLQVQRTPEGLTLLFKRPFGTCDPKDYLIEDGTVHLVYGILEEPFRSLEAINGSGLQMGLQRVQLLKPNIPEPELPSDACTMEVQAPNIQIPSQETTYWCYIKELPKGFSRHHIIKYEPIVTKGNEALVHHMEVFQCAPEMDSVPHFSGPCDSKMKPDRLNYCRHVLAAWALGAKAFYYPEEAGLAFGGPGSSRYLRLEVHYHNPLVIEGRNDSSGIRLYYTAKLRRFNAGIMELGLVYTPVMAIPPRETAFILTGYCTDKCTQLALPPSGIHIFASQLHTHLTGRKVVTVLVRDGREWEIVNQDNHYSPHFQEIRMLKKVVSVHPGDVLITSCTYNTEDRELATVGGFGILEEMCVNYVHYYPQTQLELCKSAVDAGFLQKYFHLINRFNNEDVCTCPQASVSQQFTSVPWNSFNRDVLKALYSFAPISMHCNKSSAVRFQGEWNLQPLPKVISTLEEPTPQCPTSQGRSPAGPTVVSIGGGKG

SMILES: O=C(O)CSc1nccn1Cc1cc(F)cc(F)c1 [2-(Carboxymethylthio)-1-(3,5-difluorobenzyl)imidazole]
- maximal blood pressure reduction ([1]; monitored for four hours): approximately 43 mmHg
- time blood pressure remained significantly reduced ([1]; monitored for four hours): 4 h
- time to significant blood pressure reductions following treatment [1]: ≤ 30 min

SMILES: O=C(O)c1ccc(CCC(Br)CBr)cn1 (stereo not drawn) [5-(3,4-dibromobutyl)picolinic acid]
- DBH inhibition [2]: DBH inhibitors

SMILES: O=C(O)c1ccc(CCCCCl)cn1 [5-(4-chlorobutyl) picolinic acid]
- DBH inhibition [2]: inhibit DBH

SMILES: CN(C)C(=S)SCc1ccc(C(=O)O)nc1 [5-(dimethyldithiocarbamoylmethyl)picolinic acid]
- DBH inhibition [2]: DBH inhibitors

SMILES: NOCc1ccccc1 [Benzyloxyamine]
- mode of DBH inhibition [2]: apparently act as competitive inhibitors

SMILES: CCCCc1ccc(C(N)=O)nc1 [Bupicomide, 5(n-butyl)picolinamine]
- DBH inhibition [2]: DBH inhibitor

SMILES: NNCc1ccccc1 [benzylhydrazine]
- mode of DBH inhibition [2]: apparently act as competitive inhibitors

— patent US4935438A, “Dopamine-β-hydroxylase inhibitors” (SmithKline Beckman Corporation, priority 1987, dated 1990)
